The nature of data set [1]: Photochromic properties of photochromic laminate (plastic lens) made by coating method. The class given is physicochemical. Particulars: for Color developing density at 23°C: absorbance difference after 240 seconds irradiation at 23°C; for Color developing density at 35°C: absorbance difference after 240 seconds irradiation at 35°C; for Maximum absorption wavelength: after color development, second absorption wavelength (lower line of pair). The source says:
First, the photochromic compound obtained in Example 1 above, a photoinitiator, and polymerizable compounds were mixed to obtain a curable composition.
As the polymerizable compounds, a blend of the following radically-polymerizable monomers in combination was used.
• Polyethylene glycol dimethacrylate (average molecular weight: 736): 42 parts by mass • Polyethylene glycol dimethacrylate (average molecular weight: 536): 12 parts by mass • Trimethylolpropane trimethacrylate: 38 parts by mass • γ-Methacryloyloxypropyltrimethoxysilane: 2 parts by mass • Glycidyl methacrylate: 1 part by mass.
Note that in the curable composition, the photochromic compound obtained in Example 1 above was added to be 0.25 mmol taking the total amount of the radically-polymerizable monomers as 100 g. The following were used as additives.
(stabilizer, Irganox 245): 1 part by mass Bis(1,2,2,6,6-pentamethyl-4-piperidyl) sebacate: 3 parts by mass Leveling agent from DuPont Toray Specialty Materials K.K. (L7001): 0.1 parts by mass.
Note that the above-mentioned additives are described with blending ratios taking a total of the radically-polymerizable monomers as 100 parts by mass.
Using this curable composition, a photochromic laminate was obtained by a lamination process described below with the polymerization described below being carried out.
First, a thiourethane plastic lens with a center thickness of 2 mm and a refractive index of 1.60 was prepared as an optical substrate. Note that the thiourethane plastic lens had been alkaline-etched beforehand in a 10% aqueous sodium hydroxide solution at 50°C for 5 minutes, and then thoroughly washed with distilled water.
A spin coater (1H-DX2, manufactured by MIKASA CO., LTD) was used to coat a surface of the above-mentioned plastic lens with a moisture-curable primer (product name: TR-SC-P, manufactured by Tokuyama Corporation) at a rotation speed of 70 rpm for 15 seconds, followed by at 1000 rpm for 10 seconds. Then, about 2 g of the photochromic curable composition obtained as above was spin-coated at a rotation speed of 60 rpm for 40 seconds, followed by at 600 rpm for 10 to 20 seconds so as to achieve a photochromic coating layer with a film thickness of 40 µm.
The lens having the surface coated with the photochromic curable composition (photochromic coating layer) was irradiated with light for 90 seconds in a nitrogen gas atmosphere using a metal halide lamp with an output of 200 mW/cm^2 to cure the coating film. The coating was then further heated at 110°C for 1 hour to produce a photochromic laminate with a photochromic layer.
Photochromic laminates were produced using the photochromic compounds obtained in Examples 2 to 19 in the same manner as in Example 20.
Photochromic laminates were obtained in the same manner as in Example 20 using photochromic compounds represented by the following formulas (A) to (F). [drawing 143] [drawing 144] [drawing 145] [drawing 146] [drawing 147] [drawing 148] [drawing 149] [drawing 150]
The resulting photochromic laminates were evaluated by the methods described below.
Table 3 summarizes the results of Examples 20, 32, and 34, and Comparative Examples 1 to 6, and Table 4 summarizes the results of Examples 21 to 31, 33, and 35 to 38. The relationship between the fading half-life at 23°C and the color development ratio at the higher temperature of the photochromic laminates according to Examples and Comparative Examples are shown in a graph in FIG. 1.
Photochromic laminates were formed using the photochromic compound obtained in Examples 61 to 71 in the same manner as in Example 20.

Data set [2] is described as follows: Photochromic properties of photochromic layer (binder sheet) made by binder method. Particulars: for Color developing density at 23°C: absorbance difference after 240 seconds irradiation at 23°C; for Color developing density at 35°C: absorbance difference after 240 seconds irradiation at 35°C; for Maximum absorption wavelength: after color development, second absorption wavelength (lower line of pair).
Method: This is the maximum absorption wavelength after color development determined by a spectrophotometer manufactured by Otsuka Electronics Co., Ltd. (instantaneous multichannel photo detector MCPD3000) and was used as an index of a color tone upon color development.
This is a difference between an absorbance {ε(240)} after irradiation with light at the above-mentioned maximum absorption wavelength at 23°C for 240 seconds and an absorbance ε(0) when not irradiated with light, and was used as an index of a color developing density. The higher this value is, the better photochromic property is.
This is a difference between an absorbance {ε(240)} after irradiation with light at first and second absorption wavelengths at 35°C for 240 seconds and an absorbance ε(0) when not irradiated with light, and was used as an index of a color developing density. The higher this value is, the better photochromic property is.
Color developing density at 35°C (A35) /color developing density at 23°C (A23) × 100(%). The higher this value is, the smaller the difference in color developing density between the higher temperature and the lower temperature is, and the smaller the temperature dependence is.
This is the period of time required for the absorbance at a maximum absorption wavelength of a sample to decrease to 1/2 of {ε(240)-ε(0)}, when light irradiation is stopped after the sample had been irradiated with light at 23°C for 240 seconds, and was used as an index of a color fading rate. The shorter this period of time is, the higher the color fading rate is.
A binder sheet was made according to the following method. […] As the first and second optical sheets, polycarbonate sheets with a thickness of 400 µm were used.
Note that the photochromic compound was added to be 0.25 mmol relative to 100 parts by mass of the terminally non-reactive urethaneurea resin.

The nature of data set [3]: Photochromic properties of photochromic cured product made by kneading method. Format: physicochemical. The conditions noted are these: for Maximum absorption wavelength: 1 mm, after color development, second absorption wavelength (lower line of pair); for Color developing density at 23°C: absorbance difference after 240 seconds irradiation at 23°C; for Color developing density at 35°C: absorbance difference after 240 seconds irradiation at 35°C. The text has this: First, the photochromic compound obtained in Example 1, additives, and polymerizable compounds were mixed to obtain a curable composition. As the polymerizable compounds, a blend of the following polymerizable monomers in combination was used. • 1,3-Bis(isocyanatomethyl)cyclohexane: 36.7 parts by mass Pentaerythritol tetrakis(3-mercaptopropionate): 39.4 parts by mass • Polyoxyethylene polyoxypropylene lauryl ether (WONDERSURF 140 from Aoki Oil Industrial Co., Ltd.): 17.4 parts by mass 1-Decanethiol: 2.8 parts by mass • RX-1 prepared according to the method described in Patent Document 12: 3.8 parts by mass Note that in the curable composition, the photochromic compound was added to be 0.106 mmol taking the total amount of the polymerizable monomers as 100 g.
The following additives were used. Dimethyltin dichloride: 0.05 parts by mass • Irganox 245 from BASF Japan Ltd.: 0.1 parts by mass • 2-Ethylhexyl 4-methoxycinnamate: 0.6 parts by mass
The prepared curable composition was sufficiently degassed, and then injected into a glass mold provided with a gap of 1 mm, and the curable composition was polymerized via casting polymerization. […] After the polymerization, the cured product was removed from the glass mold, to obtain photochromic cured product having a thickness of 1 mm. The resulting photochromic cured product was evaluated in the same manner as in Example 23.
(Examples 51 to 60, and Comparative Examples 11 to 14) Photochromic cured products were formed using the photochromic compound shown in Table 6 in the same manner as in Example 50.

Molecules are shown by their SMILES.

On to `COc1ccc(C2(c3ccc(OC)cc3)C=Cc3c4c(c5ccc(Oc6ccccc6)cc5c3O2)-c2ccc(N(c3ccccc3)c3ccccc3)cc2C4(CCCCF)CCCCF)cc1` [Formula (8-2)], for which the “Color developing density at 23°C” value in data set [1] (first absorption wavelength) is recorded as 0.75 -; in data set [1] (second absorption wavelength), 0.99 -; in data set [2] (first absorption wavelength), 0.77 -; in data set [2] (second absorption wavelength), 1.01 -; in data set [3] (first absorption wavelength), 0.78 -; in data set [3] (second absorption wavelength), 1.02 -. Further, the “Color developing density at 35°C” value in data set [1] (first absorption wavelength) is 0.52 -; in data set [1] (second absorption wavelength) it was 0.69 -; in data set [2] (first absorption wavelength), 0.51 -; in data set [2] (second absorption wavelength) it was 0.69 -; in data set [3] (first absorption wavelength), 0.55 -; in data set [3] (second absorption wavelength), 0.70 -. In addition, the Maximum absorption wavelength in data set [1] is 610 nm; in data set [2] it was 609 nm; in data set [3], 618 nm.

In the case of `CCCOc1ccc(C2(c3ccc(OC)cc3)C=Cc3c4c(c5cc(C)c(OC)cc5c3O2)-c2ccc(N3CCSc5ccccc53)cc2C4(CCC)CCC)cc1` (stereo not drawn) [Formula (9-2)], the “Color developing density at 23°C” value is given as 1.01 - in data set [1] (first absorption wavelength); 0.90 - in data set [1] (second absorption wavelength); 1.04 - in data set [2] (first absorption wavelength); 0.91 - in data set [2] (second absorption wavelength); 1.05 - in data set [3] (first absorption wavelength); 0.92 - in data set [3] (second absorption wavelength). The “Color developing density at 35°C” value is 0.74 - in data set [1] (first absorption wavelength); 0.66 - in data set [1] (second absorption wavelength); 0.73 - in data set [2] (first absorption wavelength); 0.64 - in data set [2] (second absorption wavelength); 0.78 - in data set [3] (first absorption wavelength); 0.69 - in data set [3] (second absorption wavelength). The Maximum absorption wavelength in data set [1] is on record as 609 nm; in data set [2], 607 nm; in data set [3], 614 nm.

Consider `CCCCC1(CCCC)c2cc(N(CC)c3ccccc3)ccc2-c2c1c1c(c3cc(C)c(-c4ccc(OC)cc4)cc23)OC(c2ccc(C)cc2)(c2ccc(N(C)c3ccccc3)cc2)C=C1` (stereo not drawn) [Formula (12-5)], for which the “Color developing density at 23°C” value in data set [1] (first absorption wavelength) is 0.86 -; in data set [1] (second absorption wavelength), 1.49 -; in data set [2] (first absorption wavelength), 0.87 -; in data set [2] (second absorption wavelength), 1.51 -; in data set [3] (first absorption wavelength), 0.88 -; in data set [3] (second absorption wavelength) it was 1.52 -. Moreover, the “Color developing density at 35°C” value in data set [1] (first absorption wavelength) is 0.64 -; in data set [1] (second absorption wavelength) it was 1.11 -; in data set [2] (first absorption wavelength) it was 0.61 -; in data set [2] (second absorption wavelength) it was 1.08 -; in data set [3] (first absorption wavelength) it was 0.67 -; in data set [3] (second absorption wavelength) it was 1.15 -. In addition, the Maximum absorption wavelength in data set [1] was 624 nm; in data set [2] it was 625 nm; in data set [3], 632 nm.

Take `COc1ccc(C2(c3ccc(OC)cc3)C=Cc3c4c(c5ccc(OC)cc5c3O2)-c2ccc(N3CCOc5ccccc53)cc2C4(C)C)cc1` [Formula (13-2)]: the “Color developing density at 23°C” value in data set [1] (first absorption wavelength) is 0.87 -; in data set [1] (second absorption wavelength) it was 1.02 -; in data set [2] (first absorption wavelength), 0.90 -; in data set [2] (second absorption wavelength) it was 1.04 -; in data set [3] (first absorption wavelength) it was 0.90 -; in data set [3] (second absorption wavelength), 1.04 -. Further, the “Color developing density at 35°C” value is recorded as 0.63 - in data set [1] (first absorption wavelength); 0.75 - in data set [1] (second absorption wavelength); 0.63 - in data set [2] (first absorption wavelength); 0.74 - in data set [2] (second absorption wavelength); 0.66 - in data set [3] (first absorption wavelength); 0.78 - in data set [3] (second absorption wavelength). The Maximum absorption wavelength in data set [1] is recorded as 608 nm; in data set [2], 608 nm; in data set [3], 616 nm.

Take `COc1ccc(C2(c3ccc(OC)cc3)C=Cc3c4c(c5ccc(OC)cc5c3O2)-c2ccc(N(c3ccccc3)c3ccccc3)cc2C4(C)C)cc1` [Formula (15-2)]: the “Color developing density at 23°C” value was 0.92 - in data set [1] (first absorption wavelength); 1.07 - in data set [1] (second absorption wavelength); 0.93 - in data set [2] (first absorption wavelength); 1.08 - in data set [2] (second absorption wavelength); 0.95 - in data set [3] (first absorption wavelength); 1.10 - in data set [3] (second absorption wavelength). Besides, the “Color developing density at 35°C” value in data set [1] (first absorption wavelength) is listed as 0.67 -; in data set [1] (second absorption wavelength) it was 0.79 -; in data set [2] (first absorption wavelength) it was 0.67 -; in data set [2] (second absorption wavelength) it was 078 -; in data set [3] (first absorption wavelength) it was 0.70 -; in data set [3] (second absorption wavelength), 0.83 -. Also, the Maximum absorption wavelength is 619 nm in data set [1], 616 nm in data set [2] and 622 nm in data set [3].

Take `COCC1(COC)c2cc(N(C)c3ccccc3)ccc2-c2c1c1c(c3ccccc23)OC(c2ccc(OC)cc2)(c2ccc(OC)c(F)c2)C=C1` (stereo not drawn) [Formula (16-3)]: the “Color developing density at 23°C” value in data set [1] (first absorption wavelength) is reported as 0.53 -; in data set [1] (second absorption wavelength), 0.89 -; in data set [2] (first absorption wavelength), 0.55 -; in data set [2] (second absorption wavelength), 0.90 -; in data set [3] (first absorption wavelength), 0.56 -; in data set [3] (second absorption wavelength), 0.92 -. Also, the “Color developing density at 35°C” value was 0.36 - in data set [1] (first absorption wavelength); 0.61 - in data set [1] (second absorption wavelength); 0.37 - in data set [2] (first absorption wavelength); 0.61 - in data set [2] (second absorption wavelength); 0.38 - in data set [3] (first absorption wavelength); 0.65 - in data set [3] (second absorption wavelength). Further, the Maximum absorption wavelength is 593 nm in data set [1], 595 nm in data set [2] and 599 nm in data set [3].

For the origin of these results see patent publication EP4755878A1, “PHOTOCHROMIC COMPOUND, PHENOL DERIVATIVE, CURABLE COMPOSITION, OPTICAL ARTICLE, LENS, AND EYEGLASS” (TOKUYAMA CORPORATION, priority 2023, dated 2025).
